Laboratory results published in US7977371B2, “Pyrrole derivative having ureido group and aminocarbonyl group as substituents” (Santen Pharmaceutical Co., Ltd., priority 2007, dated 2011).

Experiments:
[1] = test system: TNF-α-induced IL-6 production in normal human skin fibroblast-derived CCD-1059Sk cells; experiment: Test for measurement of inhibitory activity against TNF-α-induced IL-6 production; assay type: cell-based; details: Homo sapiens, CCD-1059Sk, 16 h, test compound at 10 μM, TNF-α stimulation 16 hours, inhibition ratio of 100% or more is indicated as 100%
Protocol: 1. Test for Measurement of Inhibitory Activity Against IL-6 Production
An inhibitory effect on TNF-α-induced IL-6 production in normal human skin fibroblast-derived CCD-1059Sk cells (ATCC No. CRL-2072) was evaluated. The amount of IL-6 was determined by the homogeneous time-resolved fluorescence method using HTRF™ Human IL-6 kit (Cat. No. 62IL6PEB, manufactured by CIS-Bio international, Inc.). Specific test methods will be described below.
(Preparation of Test Compound Solution)
After a test compound was dissolved in dimethyl sulfoxide, the resulting solution was diluted with D-MEM medium containing 0.1% heat-inactivated fetal bovine serum, 0.1 mM MEM non-essential amino acid solution, 100 U/mL penicillin and 100 μg/mL streptomycin (hereinafter referred to as “medium”), whereby a 40 μM test compound solution was prepared.
(Test Method and Measurement Method)
1) CCD-1059Sk cells prepared at a density of 3×10^5 cells/mL were inoculated in a 384-well plate in an amount of 10 μL per well such that the cell density was 3×10^3 cells/well.
2). After the plate was incubated at 37° C. for several hours in a CO2 incubator, 5 μL of the test compound was added to each well.
3) After the plate was incubated at 37° C. for 1 hour in a CO2 incubator, 5 μL of a 40 ng/mL TNF-α solution was added to each well.
4) After the plate was incubated at 37° C. for 16 hours in a CO2 incubator, 10 μL of a cryptate-labeled anti-IL-6 antibody and an XL665-labeled anti-IL-6 antibody containing potassium fluoride was added to each well.
5) After the plate was incubated at room temperature for several hours, a fluorescence intensity ratio (665 nm/620 nm) was determined for each well using a multimode plate reader Analyse™ HT (manufactured by Molecular Device Corporation) and Criterion Host software version 2.00 (manufactured by Molecular Device Corporation), and then, the amount of IL-6 was calculated.
6) The same procedures as in the above 1) to 5) were performed except that 0.4% dimethyl sulfoxide was added in place of the test compound, and the obtained result was designated as the control.
7) The same procedures as in the above 1) to 5) were performed except that 0.4% dimethyl sulfoxide and the medium were added in place of the test compound and the TNF-α solution, respectively, and the obtained result was designated as the background.
(Calculation Formula of IL-6 Production Inhibition Ratio)
An IL-6 production inhibition ratio (%) was calculated from the following formula. IL-6 Production Inhibition Ratio (%)=100×{1−[(Amount of IL-6 for Test Compound)−(Amount of IL-6 for Background)/(Amount of IL-6 for Control)−(Amount of IL-6 for Background)]} (Evaluation Results)

[2] = test system: choroidal neovascularization induced by krypton laser irradiation; experiment: Evaluation test for inhibitory effect on choroidal neovascularization (rat model induced by krypton laser irradiation); assay type: in vivo, Brown Norway rat; details: po, 168 h, 30 mg/kg/day orally once a day for 7 days (day 0 to day 6), fluorescein fundus angiography on day 7, versus vehicle administration group, average of 5 to 8 eyes of 3 to 4 rats, read-out: Ratio of incidence of neovascularization (% of control)
Source text: 2. Evaluation Test for Inhibitory Effect on Choroidal Neovascularization
As one of the methods widely used for evaluating an inhibitory effect on choroidal neovascularization, a rat model of choroidal neovascularization induced by krypton laser irradiation has been reported in Graefe's Arch. Cli. Exp. Ophthalmol., 235, 313-319 (1997). According to the method described in this document, a ratio of incidence of choroidal neovascularization of a present compound administration group to that of a vehicle administration group was calculated using the rat model of choroidal neovascularization, and an inhibitory effect of the present compound on choroidal neovascularization was evaluated using the calculated value as an index. Specific test methods will be described below.
(Preparation of Administration Liquid of Test Compound)
A test compound was suspended in a 1% aqueous methyl cellulose solution, whereby a 6 mg/mL test compound suspension was prepared.
(Preparation of Rat Model of Choroidal Neovascularization Induced by Krypton Laser)
1) To a Brown Norway rat (male, 7 to 8 weeks of age), a mixed solution of a 5% ketamine hydrochloride injection solution and a 2% xylazine hydrochloride injection solution (7:1) was intramuscularly administered at a dose of 1 mL/kg to effect systemic anesthesia.
2) After a 0.5% tropicamide-0.5% phenylephrine hydrochloride eye drop was instilled into the eyes to cause mydriasis, photocoagulation was performed using a krypton laser photocoagulation apparatus (MC-7000, manufactured by NIDEK Co., Ltd.). The krypton laser irradiation was performed at eight spots per eye sparsely by focusing on the retinal deep layer avoiding large retinal vessels in a posterior section of ocular fundus. The photocoagulation conditions were set such that the spot size was 100 μm, the output was 100 mW and the coagulation time was 0.1 sec.
3) After the photocoagulation, the ocular fundus photography was performed (PRO III, manufactured by Kowa Company, Ltd.) to confirm the photocoagulation (krypton laser irradiation) sites.
(Administration Method of Test Compound)
1) The test compound suspension (30 mg/kg/day) was orally administered once a day for 7 consecutive days from the day of krypton laser irradiation (day 0) until day 6.
2) A 1% aqueous methyl cellulose solution was administered in the same manner as in 1) in place of the test compound suspension, and the obtained result was designated as the vehicle administration group.
1). On day 7 after the photocoagulation, 0.1 mL of a 10% aqueous fluorescein solution was injected into the tail vein, and fluorescein fundus angiography was performed (PRO III, manufactured by Kowa Company, Ltd.).
2) In the fluorescein fundus angiography, a spot where fluorescence leakage was not observed was determined to be negative and a spot where fluorescence leakage was observed was determined to be positive. With respect to photocoagulation sites where a little fluorescence leakage was observed, in the case where there were two such photocoagulation sites, it was determined to be positive.
(Calculation Formula of Incidence of Neovascularization)
An incidence (%) of neovascularization of each administration group and a ratio of incidence of neovascularization of the test compound administration group to that of the vehicle administration group were calculated from the following formulae, respectively. Incidence of Neovascularization of Each Administration Group (%)=[(Number of Positive Photocoagulation. Sites)/(Number of Total Photocoagulation Sites)]×100 Ratio of Incidence of Neovascularization of Test Compound Administration Group to that of Vehicle Administration Group (% of Control)=[(Incidence of Neovascularization of Test Compound Administration Group)/(Incidence of Neovascularization of Vehicle Administration Group)]×100 (Evaluation Results)

SMILES | inhibition at 10 µM [1] [%] | response vs control in vivo at 30 mg/kg [2] [%]
NC(=O)Nc1[nH]c(-c2cccc(Cl)c2)cc1C(N)=O [Compound 1-25, 2-Aminocarbonylamino-5-(3-chlorophenyl) pyrrole-3-carboxamide] | 99 | 52
CCCOc1ccccc1-c1cc(C(N)=O)c(NC(N)=O)[nH]1 [Compound 4-4, 2-Aminocarbonylamino-5-(2-propyloxyphenyl) pyrrole-3-carboxamide] | 90 | 71
COc1ccccc1-c1cc(C(N)=O)c(NC(N)=O)[nH]1 [Compound 1-9, 2-Aminocarbonylamino-5-(2-methoxyphenyl) pyrrole-3-carboxamide] | 100 | 40
NC(=O)Nc1[nH]c(-c2ccc(F)cc2)cc1C(N)=O [Compound 1-8, 2-Aminocarbonylamino-5-(4-fluorophenyl) pyrrole-3-carboxamide] | 93 | 31
CCCOc1ccc(F)cc1-c1cc(C(N)=O)c(NC(N)=O)[nH]1 [Compound 4-34, 2-Aminocarbonylamino-5-(5-fluoro-2-propyloxyphenyl) pyrrole-3-carboxamide] | 100 | 75
N#CCOc1ccc(Cl)cc1-c1cc(C(N)=O)c(NC(N)=O)[nH]1 [Compound 4-43, 2-Aminocarbonylamino-5-(5-chloro-2-cyanomethyloxyphenyl)pyrrole-3-carboxamide] | 99 | 57
NC(=O)Nc1[nH]c(-c2cc(F)ccc2OCCO)cc1C(N)=O [Compound 4-54, 2-Aminocarbonylamino-5-[5-fluoro-2-(2-hydroxyethyloxy)phenyl]pyrrole-3-carboxamide] | 96 | 86
CCCOc1ccc(Cl)cc1-c1cc(C(N)=O)c(NC(N)=O)[nH]1 [Compound 4-37, 2-Aminocarbonylamino-5-(5-chloro-2-propyloxyphenyl)pyrrole-3-carboxamide] | 97 | 69
